Measured values from US8975417B2, “Pyrazolopyrrolidine derivatives and their use in the treatment of disease” (Novartis AG, priority 2013, dated 2015).

Tests used:
His-Brd4(44-477) = His-Brd4(44-477) (Homo sapiens (Human), UniProt O60885); experiment: TR-FRET in-vitro binding assay for BRD4; conditions: biochemical
In short: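 His-tagged BRD2(60-472), BRD3(20-477) or BRD4(44-477), 45 nM in dispensing solution, with 60 nM tetra-acetylated histone H4 peptide (AcK5/8/12/16) in dispensing solution; HEPES pH 7.5, 50 mM NaCl, 0.1% BSA, 30 °C, 35 min. Eu-anti-His6 antibody plus streptavidin-APC added for TR-FRET read-out; 8-point compound dilutions.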

[1] = target: His-CREBBP (1081-1197) bromodomain (Homo sapiens (Human), UniProt Q92793); experiment: AlphaScreen in-vitro binding assay for CREBBP; conditions: biochemical
In short: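 Ni-chelate acceptor and streptavidin donor beads (45 µg/mL each, in 50 mM HEPES pH 7.5, 150 mM NaCl, 0.02% BSA) were then added for 60 min at room temperature. IC50 came from 8-point non-linear regression.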

[2] = target: nuclear BRD4-NUT foci in HCC2494 NUT midline carcinoma cells (Homo sapiens (Human), UniProt O60885+Q86Y26); experiment: Nut-foci formation assay; type: cell-based; conditions: 24 hours, read-out: HCS Brd4-NUT IC50
Description: HCC2494 NUT midline carcinoma cells (expressing BRD4-NUT-fusion) were obtained from the University of Texas Southwestern and cultured in RPMI-1640 medium containing 10% Foetal Calf Serum at 37° C. in a humidified 5% CO2 incubator.
Compound-mediated inhibition of BRD4 activity was monitored by quantification of the number and intensity of nuclear BRD4-NUT foci using automated immunofluorescence microscopy. Briefly, 5000 cells in 20 μL fresh medium were seeded into Poly-D-Lysine-precoated 384-well plates and incubated overnight at 37° C. and 5% CO2, followed by addition of 5 μl medium containing compound dilutions at 5-fold their final intended concentration. Dose-response effects were assessed by 3-fold serial dilutions of the test compound, starting at 10 μM. Following incubation of the cells for 24 hours at 37° C. and 5% CO2, the cells were fixed by incubation with 3.7% formaldehyde for 10 min, followed by immunofluorescence staining using rabbit anti-NUT (Cell Signaling Technologies, Cat#3625) as primary, and AlexaFluor488-labeled goat anti-rabbit (Invitrogen, Cat#A11008) as secondary antibody (latter complemented with 1 μg/mL Hoechst33342 as DNA dye). Assay plates were imaged using the appropriate filter sets on the Cellomics VTi automated fluorescence microscopy platform (ThermoFisher Scientific) and the population average of the number of NUT-foci per nucleus is quantified using the Cellomics Spot Detection BioApplication image analysis algorithm (ThermoFisher Scientific). The effect of a particular test compound concentration on NUT-foci number and intensity is expressed as percentage of the value obtained for cells treated with vehicle only (DMSO, 0.1% final concentration), which was set as 100. Compound concentrations leading to half-maximal (IC50) inhibition of the aforementioned readout parameters were determined using standard four parameter curve fitting.

Sequence of His-CREBBP (1081-1197) bromodomain (Q92793 1081-1197): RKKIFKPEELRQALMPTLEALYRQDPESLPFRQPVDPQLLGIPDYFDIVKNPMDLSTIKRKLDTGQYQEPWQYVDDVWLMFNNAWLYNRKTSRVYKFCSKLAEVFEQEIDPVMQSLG

| SMILES | IC50 (His-Brd4(44-477)) | IC50 [1] | IC50 [2] |
| --- | --- | --- | --- |
| COc1ncc(-n2nc(C)c3c2C(=O)N(c2cc(C)c(=O)n(C)c2)C3c2ccc(Cl)cc2)c(OC)n1 (racemic) [Example 52, 4-(4-chlorophenyl)-1-(2,4-dimethoxypyrimidin-5-yl)-5-(1,5-dimethyl-6-oxo-1,6-dihydropyridin-3-yl)-3-methyl-4,5-dihydropyrrolo[3,4-c]pyrazol-6(1H)-one] | 87 nM | 5700 nM | 117 nM |
| Cc1cc(N2C(=O)c3c(cnn3C3CC3)C2c2ccc(Cl)cc2)cn(C)c1=O (stereo not drawn) [Example 34, 4-(4-chlorophenyl)-1-cyclopropyl-5-(1,5-dimethyl-6-oxo-1,6-dihydropyridin-3-yl)-4,5-dihydropyrrolo[3,4-c]pyrazol-6(1H)-one] | 110 nM | 5200 nM | 202 nM |
| Cn1cc(N2C(=O)c3c(c(C(F)(F)F)nn3C3CC3)C2c2ccc(Cl)cc2)cc(Cl)c1=O (stereo not drawn) [Example 44, 5-(5-chloro-1-methyl-6-oxo-1,6-dihydropyridin-3-yl)-4-(4-chlorophenyl)-1-cyclopropyl-3-(trifluoromethyl)-4,5-dihydropyrrolo[3,4-c]pyrazol-6(1H)-one] | 210 nM | 3900 nM | 164 nM |
| Cc1nn(C2CC2)c2c1[C@@H](c1ccc(Cl)cc1)N(c1cc(C)c(=O)n(C)c1)C2=O [Example 49, (R)-4-(4-chlorophenyl)-1-cyclopropyl-5-(1,5-dimethyl-6-oxo-1,6-dihydropyridin-3-yl)-3-methyl-4,5-dihydropyrrolo[3,4-c]pyrazol-6(1H)-one] | 17 nM | 1300 nM | 34.1 nM |
| Cc1nn(C2CC2)c2c1[C@@H](c1ccc(Cl)cc1)N(c1cc(Cl)c(=O)n(C)c1)C2=O [Example 51, (R)-5-(5-chloro-1-methyl-6-oxo-1,6-dihydropyridin-3-yl)-4-(4-chlorophenyl)-1-cyclopropyl-3-methyl-4,5-dihydropyrrolo[3,4-c]pyrazol-6(1H)-one] | 20 nM | 1400 nM | 76.4 nM |
| COc1ncc(-n2nc3c(c2C(C)C)C(c2ccc(Cl)cc2)N(c2ccc4onc(C)c4c2)C3=O)c(OC)n1 (stereo not drawn) [Example 54, 4-(4-chlorophenyl)-2-(2,4-dimethoxypyrimidin-5-yl)-3-isopropyl-5-(3-methylbenzo-[d]isoxazol-5-yl)-4,5-dihydropyrrolo[3,4-c]pyrazol-6(2H)-one] | 260 nM | > 37000 nM | 490 nM |
| COc1ncc(-n2nc3c(c2C)C(c2ccc(Cl)cc2)N(c2cc(Cl)c(=O)n(C)c2)C3=O)c(OC)n1 (stereo not drawn) [Example 55, 5-(5-chloro-1-methyl-6-oxo-1,6-dihydropyridin-3-yl)-4-(4-chlorophenyl)-2-(2,4-dimethoxypyrimidin-5-yl)-3-methyl-4,5-dihydropyrrolo[3,4-c]pyrazol-6(2H)-one] | 150 nM | 600 nM | 54.1 nM |
| CCc1nn(C2CC2)c2c1C(c1ccc(Cl)cc1)N(c1cc(C)c3nnc(C)n3c1)C2=O (stereo not drawn) [Example 70, 4-(4-chlorophenyl)-1-cyclopropyl-5-(3,8-dimethyl-[1,2,4]triazolo[4,3-a]pyridin-6-yl)-3-ethyl-4,5-dihydropyrrolo[3,4-c]pyrazol-6(1H)-one] | 24 nM | 11000 nM | 11.4 nM |
| COc1ncccc1-n1nc(C)c2c1C(=O)N(c1cc(Cl)c(=O)n(C)c1)C2c1ccc(Cl)cc1 (stereo not drawn) [Example 72, 5-(5-chloro-1-methyl-6-oxo-1,6-dihydropyridin-3-yl)-4-(4-chlorophenyl)-1-(2-methoxypyridin-3-yl)-3-methyl-4,5-dihydropyrrolo[3,4-c]pyrazol-6(1H)-one] | 79 nM | 8200 nM | 141 nM |
| Cc1cc(N2C(=O)c3nn(C)c(O)c3C2c2ccc(Cl)cc2)cn(C)c1=O (stereo not drawn) [Example 73, 4-(4-chlorophenyl)-5-(1,5-dimethyl-6-oxo-1,6-dihydropyridin-3-yl)-3-hydroxy-2-methyl-4,5-dihydropyrrolo[3,4-c]pyrazol-6(2H)-one] | 210 nM | 2000 nM | > 10000 nM |
| Cc1nn(-c2cncn2C)c2c1C(c1ccc(Cl)cc1)N(c1cc(C)c(=O)n(C)c1)C2=O (stereo not drawn) [Example 83, 4-(4-chlorophenyl)-5-(1,5-dimethyl-6-oxo-1,6-dihydropyridin-3-yl)-3-methyl-1-(1-methyl-1H-imidazol-5-yl)-4,5-dihydropyrrolo[3,4-c]pyrazol-6(1H)-one] | 91 nM | 6100 nM | 96.8 nM |

Further lines, results first:

| IC50 (His-Brd4(44-477)) | IC50 [1] | IC50 [2] | SMILES |
| --- | --- | --- | --- |
| 67 nM | 6400 nM | 44.2 nM | Cc1nn(-c2ccnn2C)c2c1C(c1ccc(Cl)cc1)N(c1cc(C)c(=O)n(C)c1)C2=O (racemic) [Example 74, 4-(4-chlorophenyl)-5-(1,5-dimethyl-6-oxo-1,6-dihydropyridin-3-yl)-3-methyl-1-(1-methyl-1H-pyrazol-5-yl)-4,5-dihydropyrrolo[3,4-c]pyrazol-6(1H)-one] |
| 120 nM | 2900 nM | 106 nM | CCOc1c2c(nn1C)C(=O)N(c1cc(C)c(=O)n(C)c1)C2c1ccc(Cl)cc1 (stereo not drawn) [Example 76, 4-(4-chlorophenyl)-5-(1,5-dimethyl-6-oxo-1,6-dihydropyridin-3-yl)-3-ethoxy-2-methyl-4,5-dihydropyrrolo[3,4-c]pyrazol-6(2H)-one] |
| 130 nM | 1900 nM | 99.5 nM | COc1c2c(nn1C)C(=O)N(c1cc(C)c(=O)n(C)c1)C2c1ccc(Cl)cc1 (stereo not drawn) [Example 77, 4-(4-chlorophenyl)-5-(1,5-dimethyl-6-oxo-1,6-dihydropyridin-3-yl)-3-methoxy-2-methyl-4,5-dihydropyrrolo[3,4-c]pyrazol-6(2H)-one] |
| 63 nM | 3100 nM | 39.5 nM | CCc1nn(CCO)c2c1C(c1ccc(Cl)cc1)N(c1cc(C)c(=O)n(C)c1)C2=O (stereo not drawn) [Example 78, 4-(4-chlorophenyl)-5-(1,5-dimethyl-6-oxo-1,6-dihydropyridin-3-yl)-3-ethyl-1-(2-hydroxyethyl)-4,5-dihydropyrrolo[3,4-c]pyrazol-6(1H)-one] |
| 78 nM | 11000 nM | 150 nM | CCc1nn(CCO)c2c1C(c1ccc(Cl)cc1)N(c1cc(C)c3onc(C)c3c1)C2=O (stereo not drawn) [Example 79, 4-(4-chlorophenyl)-5-(3,7-dimethylbenzo[d]isoxazol-5-yl)-3-ethyl-1-(2-hydroxyethyl)-4,5-dihydropyrrolo[3,4-c]pyrazol-6(1H)-one] |
| 35 nM | 5000 nM | 178 nM | CCc1c2c(nn1CCO)C(=O)N(c1cc(C)c3onc(C)c3c1)C2c1ccc(Cl)cc1 (stereo not drawn) [Example 80, 4-(4-chlorophenyl)-5-(3,7-dimethylbenzo[d]isoxazol-5-yl)-3-ethyl-2-(2-hydroxyethyl)-4,5-dihydropyrrolo[3,4-c]pyrazol-6(2H)-one] |
| 110 nM | 920 nM | 74.3 nM | Cc1ncccc1-n1nc2c(c1C)C(c1ccc(Cl)cc1)N(c1cc(C)c(=O)n(C)c1)C2=O (stereo not drawn) [Example 81, 4-(4-chlorophenyl)-5-(1,5-dimethyl-6-oxo-1,6-dihydropyridin-3-yl)-3-methyl-2-(2-methylpyridin-3-yl)-4,5-dihydropyrrolo[3,4-c]pyrazol-6(2H)-one] |
| 68 nM | 6500 nM | 29.4 nM | Cc1ncccc1-n1nc(C)c2c1C(=O)N(c1cc(C)c(=O)n(C)c1)C2c1ccc(Cl)cc1 (stereo not drawn) [Example 82, 4-(4-chlorophenyl)-5-(1,5-dimethyl-6-oxo-1,6-dihydropyridin-3-yl)-3-methyl-1-(2-methylpyridin-3-yl)-4,5-dihydropyrrolo[3,4-c]pyrazol-6(1H)-one] |
| 28 nM | > 37000 nM | 92 nM | CCc1nn(C2CC2)c2c1C(c1ccc(Cl)cc1)N(c1cc(OC)c3nnc(C)n3c1)C2=O (stereo not drawn) [Example 84, 4-(4-chlorophenyl)-1-cyclopropyl-3-ethyl-5-(8-methoxy-3-methyl-[1,2,4]triazolo[4,3-a]pyridin-6-yl)-4,5-dihydropyrrolo[3,4-c]pyrazol-6(1H)-one] |
| 50 nM | 9800 nM | 17.3 nM | CCc1nn(CCOC)c2c1C(c1ccc(Cl)cc1)N(c1cc(C)c3nnc(C)n3c1)C2=O (stereo not drawn) [Example 87, 4-(4-chlorophenyl)-5-(3,8-dimethyl-[1,2,4]triazolo[4,3-a]pyridin-6-yl)-3-ethyl-1-(2-methoxyethyl)-4,5-dihydropyrrolo[3,4-c]pyrazol-6(1H)-one] |
